Data reported in BindingDB's records for doi:10.7270/Q23F4N29 (Broad Institute, 2010).

Target: T1, S-ribosylhomocysteine lyase (Vibrio harveyi, UniProt B0LUE4)
T1 sequence (B0LUE4 whole entry): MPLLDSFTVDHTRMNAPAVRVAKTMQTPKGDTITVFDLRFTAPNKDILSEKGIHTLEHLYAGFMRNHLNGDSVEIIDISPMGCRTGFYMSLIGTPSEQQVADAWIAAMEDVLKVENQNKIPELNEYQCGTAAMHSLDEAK
Assay: LuxS enzyme inhibitors, dose response, mechanism study for V. harveyi quorum sensing inhibitors, biochemical, cell-free, homogeneous (AID 434944)

SMILES	EC50
COc1cc(NC(=O)CN2C(=O)NC(c3ccccc3)(c3ccccc3)C2=O)cc(OC)c1 [MLS001176525]	> 350 µM
CCc1ccc(S(=O)(=O)Nc2ccc(Br)cn2)cc1 [MLS001211346]	> 350 µM
C=Cn1c(C(=O)O)ccc1-c1ccc(CC)cc1	149 µM
CN(C)S(=O)(=O)c1ccc(NC(=S)NC(=O)Cc2ccccc2)cc1 [N-[[4-(dimethylsulfamoyl)phenyl]carbamothioyl]-2-phenyl-ethanamide]	> 350 µM
CCCc1ccc(S(=O)(=O)N(C)S(=O)(=O)c2ccc(F)cc2)cc1 [N-(4-fluorophenyl)sulfonyl-N-methyl-4-propylbenzenesulfonamide]	> 350 µM

The next lines start with the values.

EC50	SMILES
> 350 µM	Cc1cccc(NS(=O)(=O)c2ccc(Oc3ccccc3)cc2)n1 [SMR000071466]
> 350 µM	Cn1cnc(S(=O)(=O)Nc2ccc(OC(F)(F)F)cc2)c1 [SMR000314513]
